Measured values: patent US9856427B2, “Method to convert fermentation mixture into fuels” (The Regents of the University of California, priority 2011, dated 2018)

System: Clostridium acetobutylicum
Assay: Toxicity study: growth inhibition and cell viability
Type: cell-based
Settings: up to 1:1 volume ratios of extractant to media
Text: Growth inhibition and cell viability was examined in a study using up to 1:1 volume ratios of extractant to media.

CCCC(=O)OCC(COC(=O)CCC)OC(=O)CCC [glyceryl tributyrate]
toxicity to Clostridium acetobutylicum (growth inhibition and cell viability): non-toxic
